# Reference: publication PMC6396024, “Artemin and an Artemin-Derived Peptide, Artefin, Induce Neuronal Survival, and Differentiation Through Ret and NCAM” (Frontiers in Molecular Neuroscience, 2019)
# Ends that are not written are not given here.
# T1: recombinant human GFRα3/Fc (human, UniProt O60609 32-374)
# T1 construct: GDNF family receptor alpha-3 (GFRα3), human; Commercial Fc chimera; also called GFL receptor α3; source: bought: R&D Systems
# T1 sequence (looked up): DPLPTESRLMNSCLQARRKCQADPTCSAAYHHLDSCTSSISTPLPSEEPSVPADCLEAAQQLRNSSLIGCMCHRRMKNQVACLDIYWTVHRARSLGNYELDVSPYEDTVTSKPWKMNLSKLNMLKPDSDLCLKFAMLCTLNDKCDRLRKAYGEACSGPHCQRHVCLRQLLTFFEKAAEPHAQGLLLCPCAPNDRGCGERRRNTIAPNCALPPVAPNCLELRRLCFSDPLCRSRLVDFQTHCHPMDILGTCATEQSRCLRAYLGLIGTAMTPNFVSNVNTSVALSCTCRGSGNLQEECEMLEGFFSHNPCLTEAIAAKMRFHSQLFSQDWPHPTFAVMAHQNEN
# B1: artefin, ARTN-derived peptide synthesized as a tetramer (dendrimer) on a lysine backbone (peptide)
# peptide: RSPHDLSLASLLGAG
# modifications: also: tetramer: four monomers coupled to a lysine backbone
# notes: amino acids 166-180 of human ARTN (UniProt D3DPX9), heel region; also called artefin-dendrimer; artefin-d; source: synthetic peptide (Schafer-N, Copenhagen; solid-phase Fmoc chemistry)
# Experiments:
# [1] = test system: NCAM; cerebellar granule neurons (CGNs); assay: Neurite outgrowth in CGNs with NCAM knock down (NCAM shRNA); type: cell-based, Wistar rat; settings: 24 h, P2-d 8 μg/ml, ARTN 0.21 nM, artefin 1.4 μM
# Protocol: (§1) Cerebellar granule neurons (CGNs) were prepared from 7-day-old Wistar rat pups (Charles River Laboratories, Sulzfeld, Germany) as previously described ([Schousboe et al., 1989]). Briefly, pups were decapitated, and the cerebellum was removed and cleared from blood vessels and meninges in ice-cold modified Krebs-Ringer buffer. The cerebellum was dissociated by chopping and trypsinization. Cells were washed in Krebs-Ringer buffer containing DNAse I (Sigma, St. Louis, MO, United States) and soybean trypsin inhibitor (Sigma) to stop trypsinization, and the remaining tissue pieces were pelleted by centrifugation. Cells were then washed in Krebs-Ringer buffer containing Ca^2+ and Mg^2+ and re-suspended in appropriate Neurobasal^TM medium (Invitrogen, Taastrup, Denmark) with supplements depending on the experiment.
# (§2) To evaluate the involvement of NCAM and RET in neurite outgrowth induced by either ARTN or artefin, CGNs (3 × 10^6 per transfection) were transfected with 3 μg DNA using a Nucleofector^TM 2b device and a Rat Neuron Nucleofector Kit (Amaxa, Inc., Gaithersburg, MD, United States). A kinase-deleted dominant negative RET insert was obtained by direct PCR using a commercially available clone (IRAKp961P02132Q; RZPD, Berlin, Germany) encoding full-length mouse RET coding sequence 586–3807 nt. as template. The upper primer […] contained a NheI restriction site and Kozak sequence, and the lower primer […] encoded Streptag II and NotI restriction sites. The dominant negative RET insert and the pcDNA5/FRT expression vector containing the Flp-In system were cut with NheI and NotI restriction enzymes, purified, ligated using the Rapid DNA Ligation Kit (Roche, Basel, Switzerland), and transfected into One Shot TOP10 E. coli (Invitrogen, Taastrup, Denmark). E. coli colonies containing the dominant negative RET insert were identified by PCR, and one insert-positive colony was used for plasmid purification. The identity of the purified plasmid was verified by restriction cutting and sequencing of the insert. For NCAM knock down, we used a pENTR vector containing the shRNA expression cassette for NCAM knock down ([Hansen et al., 2007]). An empty vector was used as a control. To identify transfected neurons, all transfections were performed as co-transfections with 0.5 μg pEGFP-N1, an expression vector encoding the enhanced variant of green fluorescent protein (GFP; Clontech, Palo Alto, CA, United States). Transfected CGNs were seeded in Neurobasal^TM-A medium supplemented with 2% (v/v) B27, 5% (v/v) FCS, and 2 mM Glutamax at a density of 1 × 10^5 cells/cm^2.
# (§3) To estimate neurite outgrowth, neurons were fixated 24 h after stimulation and stained with rabbit anti-growth-associated-protein-43 (GAP-43) antibody (Chemicon International, Inc., Temecula, CA, United States) or anti-GFP antibody (for transfection experiment) overnight at 4°C followed by incubation with secondary Alexa-conjugated goat anti-rabbit antibodies (Invitrogen, Taastrup, Denmark). In case of experiments with plasmid transfection, the transfection efficiency was ca. 20% of total cells and the neurite outgrowth was evaluated only in GFP-positive, i.e., transfected, cells. For representative pictures, cells were additionally co-stained with Hoechst 33258.
# (§4) Computer-assisted fluorescent microscopy was performed using a Nikon Diaphot 300 inverted microscope (Nikon) equipped with a Nikon Plan 20× objective and coupled to a video camera (Grundig Electronics, Germany). For each condition in each experiment, including the experiment with transfections, images of approximately 200 cells were recorded in systematic series of fields of view, and neurite outgrowth was quantified using a stereological approach as previously described ([Rønn et al., 2000]).
# (§5) FIGURE 7 Neuritogenic effect of ARTN and artefin in (A) dominant negative RET or (B) knock down NCAM-expressing CGNs. […]
# [2] = test system: RET; cerebellar granule neurons (CGNs); assay: Neurite outgrowth in CGNs transfected with dominant negative RET (dnRET); type: cell-based, Wistar rat; settings: 24 h, P2-d 8 μg/ml, ARTN 0.21 nM, artefin 1.4 μM
# Protocol: as §1, §2, §3, §4, §5
# [3] = test system: FGFR; cerebellar granule neurons (CGNs); assay: Neurite outgrowth in CGNs with FGFR-inhibitor SU5402; type: cell-based, Wistar rat; settings: p < 0.01
# Protocol: as §1
# Cerebellar granule neurons CGNs were re-suspended in Neurobasal^TM medium supplemented with 2% (v/v) B27, 0.5% (v/v) glutamax, 100 U/ml penicillin, 100 μg/ml streptomycin, 0.4% (w/v) BSA, and 20 mM HEPES and were seeded in 8-well LabTek Permanox chamber slides (Nunc) at a density of 1 × 10^4 cells/cm^2. Various concentrations of ARTN, artefin, scrambled artefin, or reversed artefin were added to neurons immediately after seeding. For the RET inhibition assay, the inhibitory goat anti-mouse RET antibody (4.1 μg/ml; R&D systems, Abingdon, United Kingdom) or control goat IgG (4.1 μg/ml; Santa Cruz Biotechnology, Dallas, TX, United States) were added to neurons 1 h before stimulation with ARTN (0.042 nM) […]. For the competition assay between growth factor and mimetic peptide, a combination of ARTN (2.1 nM) and artefin (4.2 μM) was added to the cells immediately after seeding. […]
# To estimate neurite outgrowth, neurons were fixated 24 h after stimulation and stained with rabbit anti-growth-associated-protein-43 (GAP-43) antibody (Chemicon International, Inc., Temecula, CA, United States) or anti-GFP antibody (for transfection experiment) overnight at 4°C followed by incubation with secondary Alexa-conjugated goat anti-rabbit antibodies (Invitrogen, Taastrup, Denmark). In case of experiments with plasmid transfection, the transfection efficiency was ca. 20% of total cells and the neurite outgrowth was evaluated only in GFP-positive, i.e., transfected, cells. […]
# Computer-assisted fluorescent microscopy was performed using a Nikon Diaphot 300 inverted microscope (Nikon) equipped with a Nikon Plan 20× objective and coupled to a video camera (Grundig Electronics, Germany). For each condition in each experiment, including the experiment with transfections, images of approximately 200 cells were recorded in systematic series of fields of view, and neurite outgrowth was quantified using a stereological approach as previously described ([Rønn et al., 2000]). […]
# [4] = test system: cerebellar granule neurons (CGNs); assay: Survival assay of CGNs induced to undergo apoptosis by potassium withdrawal; type: cell-based, Wistar rat; settings: 50 ng/ml, 48 h, 5 mM KCl; p < 0.0001; positive control
# Protocol: as §1
# Cerebellar granule neurons were re-suspended in Neurobasal^TM-A medium supplemented with 2% (v/v) B27 (Invitrogen, Taastrup, Denmark), 0.5% (v/v) glutamax, 100 U/ml penicillin, 100 μg/ml streptomycin, and 40 mM KCl, and seeded at a density of 1 × 10^5 cells/well in 8-well LabTek Permanox chamber slides (Nunc, Roskilde, Denmark) coated with poly-L-lysine (10 μg/ml). To avoid proliferation of non-neuronal cells, cytosine-β-D-arabinofuranoside (Sigma) was added to cells 24 h after plating. CGNs were allowed to differentiate for 7 days in vitro (DIV) in the presence of 40 mM KCl before being induced to undergo apoptosis by changing the medium to one containing only 5 mM KCl (apoptotic medium) ([D’Mello et al., 1993]). At 7 DIV, cells were washed and stimulated with serially diluted ARTN or artefin diluted in the apoptotic medium. Three different controls were included; (1) cells grown in medium containing 40 mM KCl served as a positive control; (2) cells grown in medium containing 5 mM KCl served as a negative control; (3) cells grown in medium containing 5 mM KCl supplemented with 50 ng/ml insulin growth factor-1 (IGF-1) (Life Technology), a known anti-apoptotic factor for CGNs in this setup ([Galli et al., 1995]). After 48 h following the induction of apoptosis, cells were fixated in 4% formaldehyde for 30 min, and nuclear morphology was visualized with Hoechst 33258 staining (Invitrogen, Taastrup, Denmark) (Figure 2A). Images of cells were obtained using a Nikon Diaphot 200 fluorescent microscope equipped with a Nikon Plan 40× objective (Nikon, Tokyo, Japan) and coupled to a black-white video camera. Images of at least 1000 cells/well in different fields of view were analyzed, and the percentage of viable neurons was estimated as the ratio of live cells (non-pyknotic cells with dispersed chromatin) to the total number of neurons.
# FIGURE 2 Effect of ARTN and artefin on survival of cerebellar granular neurons (CGNs) induced to undergo apoptosis. CGNs were differentiated for 7 days in the presence of 40 mM KCl before apoptosis was induced by potassium withdrawal. (A) Nuclear morphology of CGNs after Hoechst 33258 staining. […] Scale bar: 100 μm. Cells were grown for 48 h in media, containing 40 mM KCl, apoptotic medium (5 mM KCl) or apoptotic medium supplemented with 50 ng/ml IGF-1 (positive control) (B), serially diluted ARTN (C), or artefin (D). Each experiment was performed in the presence of the three controls (40 mM KCl, 5 mM KCl, and 5 mM KCl plus IGF-1), and the survival effect of the growth factor and the peptide was compared to its own apoptotic control (5 mM KCl). Results from the five experiments are expressed as percentage of 40 mM KCl control set at 100% and presented as mean ± SEM. The anti-apoptotic effect of ARTN and artefin was tested using Student’s paired t-test, where ^∗p < 0.05; ^∗∗p < 0.01; ^∗∗∗p < 0.001; ^∗∗∗∗p < 0.0001.
# [5] = test system: cerebellar granule neurons (CGNs); assay: Neurite outgrowth assay in CGNs; type: cell-based, Wistar rat; settings: 24 h; ARTN 0.013–2.1 nM; artefin 0.16–37.9 μM; one-way ANOVA
# Protocol: as §1
# Cerebellar granule neurons CGNs were re-suspended in Neurobasal^TM medium supplemented with 2% (v/v) B27, 0.5% (v/v) glutamax, 100 U/ml penicillin, 100 μg/ml streptomycin, 0.4% (w/v) BSA, and 20 mM HEPES and were seeded in 8-well LabTek Permanox chamber slides (Nunc) at a density of 1 × 10^4 cells/cm^2. Various concentrations of ARTN, artefin, scrambled artefin, or reversed artefin were added to neurons immediately after seeding. For the RET inhibition assay, the inhibitory goat anti-mouse RET antibody (4.1 μg/ml; R&D systems, Abingdon, United Kingdom) or control goat IgG (4.1 μg/ml; Santa Cruz Biotechnology, Dallas, TX, United States) were added to neurons 1 h before stimulation with ARTN (0.042 nM) […]. For the competition assay between growth factor and mimetic peptide, a combination of ARTN (2.1 nM) and artefin (4.2 μM) was added to the cells immediately after seeding. To inhibit Fibroblast growth factor receptor (FGFR) pharmacologically, inhibitor of FGFR, SU5402 (Sigma), was added to the growth medium in serial dilutions of 20, 40, and 80 μM immediately after plating of CGNs, followed by addition of either P2-d (8 μg/ml), ARTN (0.21 nM), or artefin (1.4 μM) 1 h after the plating.
# as §3, §4
# FIGURE 3 Neurite outgrowth induced by ARTN (A), artefin-dendrimer (B), and artefin-monomer (C) in CGNs. Cells were stimulated with ARTN (0.013, 0.042, 0.13, 0.42, and 2.1 nM) or artefin (0.16, 0.47, 1.4, 4.2, 12.6, and 37.9 μM) for 24 h. For the unstimulated control, the absolute length of neurites was 11.47 ± 1.5 μm. Results from four independent experiments are expressed as percentage of untreated control set to 100% and presented as mean ± SEM. The mean neurite outgrowth lengths were compared using one-way ANOVA for repeated measurements. The effect of individual concentrations of ARTN and artefin was compared to control using one-way ANOVA with Dunnett’s post-hoc test, ^∗p < 0.05; ^∗∗p < 0.01. […]
# [6] = target: T1, recombinant human GFRα3/Fc; assay: SPR; Biacore 2000, 25°C, HBS-EP (10 mM HEPES pH 7.4, 150 mM NaCl, 3 mM EDTA, 0.005% P20); ARTN (~2300 RU) or artefin (~1600 RU) amine-coupled on a CM4 chip; serially diluted GFRα3/Fc or NCAM Ig1–3 injected at 20 μl/min; 1:1 interaction model or steady-state affinity analysis; settings: both partners purified
# [7] = target: T2, recombinant rat NCAM Ig1–3 (rat, UniProt P13596 20-308); assay: as above; settings: both partners purified
# T2 construct: neural cell adhesion molecule (NCAM), rat, Ig1–3 domains; also called NCAM Ig1–3 domain; source: recombinant, produced as described previously (Soroka et al., 2003)
# T2 sequence (P13596 20-308): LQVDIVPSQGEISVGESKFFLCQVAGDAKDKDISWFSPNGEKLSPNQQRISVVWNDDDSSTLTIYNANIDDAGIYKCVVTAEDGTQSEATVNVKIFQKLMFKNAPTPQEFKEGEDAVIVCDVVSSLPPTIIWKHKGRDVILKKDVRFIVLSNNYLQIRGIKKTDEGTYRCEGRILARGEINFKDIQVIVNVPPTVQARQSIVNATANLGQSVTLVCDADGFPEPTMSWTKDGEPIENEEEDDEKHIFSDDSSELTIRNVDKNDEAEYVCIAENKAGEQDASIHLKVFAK
molecule,measurement,setting,value
"GRILARGEINFK [P2-d, reference compound]",neurite outgrowth in NCAM knock down neurons,[1]; NCAM shRNA,eliminated in neurons transfected with NCAM shRNA (p < 0.01
same,neurite outgrowth in mock-transfected neurons,"[1]; empty vector, versus control",increased neurite outgrowth in mock-transfected neurons (p < 0.05)
same,neurite outgrowth in dnRET-transfected neurons,[2]; dnRET,significantly increased the level of neurite outgrowth in mock-transfected neurons as well as in neurons transfected with the vector encoding dnRET (p < 0.05
same,neurite outgrowth in mock-transfected neurons,"[2]; empty vector, versus control",significantly increased the level of neurite outgrowth in mock-transfected neurons
same,neurite outgrowth with 80 μM FGFR inhibitor,[3]; P2-d 8 μg/ml with 80 μM inhibitor,significantly attenuated
same,neurite outgrowth in the absence of SU5402,[3]; P2-d 8 μg/ml,promoted neurite outgrowth in the absence of SU5402 (p < 0.01)
"IGF-1: insulin growth factor-1 (Life Technology), a known anti-apoptotic factor for CGNs [reference compound]",neuronal survival (rescue from apoptosis by potassium withdrawal),[4],significantly increased the number of CGNs rescued from the apoptosis
RSPHDLSLASLLGAG [artefin in monomer form],overall neuritogenic effect,[5],did not demonstrate any significant neurite outgrowth
B1,Kd,[6],2.9 nM
same,Kd,[7],2800 nM
